The supplement of paper PMC4628005

How the values were obtained:
Details in all cases: drug exposure time: 96 h
Vorinostat = compound: O=C(CCCCCCC(=O)Nc1ccccc1)NO [Vorinostat]
Description: (§1)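 Breast cancer cell lines were grown in RPMI 1640 with 10% FBS on collagen I-coated 96-well plates and treated for 96 h (from 24 h after seeding) with 12 dilutions per drug, in triplicate. Growth was read by sulforhodamine B total-protein staining (absorbance 570 nm) relative to diluent control, and IC50 was calculated. The top dose was 1e-5 M for most drugs; Bortezomib went to 2e-5 M and Sirolimus and 17-AAG to 2e-6 M[…].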

Nutlin-3 = compound: COc1ccc(C2=N[C@@H](c3ccc(Cl)cc3)[C@@H](c3ccc(Cl)cc3)N2C(=O)N2CCNC(=O)C2)c(OC(C)C)c1 [Nutlin-3]
Description: as §1

Panobinostat = compound: Cc1[nH]c2ccccc2c1CCNCc1ccc(/C=C/C(=O)NO)cc1 [Panobinostat]
Description: as §1

Azacitidine = compound: Nc1ncn([C@@H]2O[C@H](CO)[C@@H](O)[C@H]2O)c(=O)n1 [Azacitidine]
Description: as §1

Tipifarnib = compound: Cn1cncc1[C@@](N)(c1ccc(Cl)cc1)c1ccc2c(c1)c(-c1cccc(Cl)c1)cc(=O)n2C [Tipifarnib]
Description: as §1

Erlotinib = compound: C#Cc1cccc(Nc2ncnc3cc(OCCOC)c(OCCOC)cc23)c1 [Erlotinib]
Description: as §1

Quisinostat = compound: Cn1cc(CNCC2CCN(c3ncc(C(=O)NO)cn3)CC2)c2ccccc21 [Quisinostat]
Description: as §1

Gefitinib = compound: COc1cc2ncnc(Nc3ccc(F)c(Cl)c3)c2cc1OCCCN1CCOCC1 [Gefitinib]
Description: as §1

Doxorubicin = compound: COc1cccc2c1C(=O)c1c(O)c3c(c(O)c1C2=O)C[C@@](O)(C(=O)CO)C[C@@H]3O[C@H]1C[C@H](N)[C@H](O)[C@H](C)O1 [Doxorubicin]
Description: as §1

Paclitaxel = compound: CC(=O)O[C@H]1C(=O)[C@@]2(C)[C@H]([C@H](OC(=O)c3ccccc3)[C@]3(O)C[C@H](OC(=O)[C@H](O)[C@@H](NC(=O)c4ccccc4)c4ccccc4)C(C)=C1C3(C)C)[C@]1(OC(C)=O)CO[C@@H]1C[C@@H]2O [Paclitaxel]
Description: as §1

Vandetanib = compound: COc1cc2/c(=N/c3ccc(Br)cc3F)nc[nH]c2cc1OCC1CCN(C)CC1 [Vandetanib]
Description: as §1

Methotrexate = compound: CN(Cc1cnc2nc(N)nc(N)c2n1)c1ccc(C(=O)N[C@@H](CCC(=O)O)C(=O)O)cc1 [Methotrexate]
Description: as §1

Decitabine = compound: Nc1ncn([C@H]2C[C@H](O)[C@@H](CO)O2)c(=O)n1 [Decitabine]
Description: as §1

5-Fluorouracil = compound: O=c1[nH]cc(F)c(=O)[nH]1 [5-Fluorouracil]
Description: as §1

Mitoxantrone = compound: O=C1c2c(O)ccc(O)c2C(=O)c2c(NCCNCCO)ccc(NCCNCCO)c21 [Mitoxantrone]
Description: as §1

Belinostat = compound: O=C(/C=C/c1cccc(S(=O)(=O)Nc2ccccc2)c1)NO [Belinostat]
Description: as §1

Cisplatin = compound: N.N.[Cl][Pt][Cl] [Cisplatin]
Description: as §1

Sorafenib = compound: CNC(=O)c1cc(Oc2ccc(NC(=O)Nc3ccc(Cl)c(C(F)(F)F)c3)cc2)ccn1 [Sorafenib]
Description: as §1

ARQ197 = compound: O=C1NC(=O)[C@@H](c2cn3c4c(cccc24)CCC3)[C@@H]1c1c[nH]c2ccccc12 [ARQ197]
Description: as §1

Serdemetan = compound: c1ccc2c(CCNc3ccc(Nc4ccncc4)cc3)c[nH]c2c1 [Serdemetan]
Description: as §1

Lapatinib = compound: CS(=O)(=O)CCNCc1ccc(-c2ccc3ncnc(Nc4ccc(OCc5cccc(F)c5)c(Cl)c4)c3c2)o1 [Lapatinib]
Description: as §1

Sunitinib = compound: CCN(CC)CCNC(=O)c1c(C)[nH]c(/C=C2\C(=O)Nc3ccc(F)cc32)c1C [Sunitinib]
Description: as §1

Tamoxifen = compound: CC/C(=C(\c1ccccc1)c1ccc(OCCN(C)C)cc1)c1ccccc1 [Tamoxifen]
Description: as §1

Docetaxel = compound: CC(=O)O[C@@]12CO[C@@H]1C[C@H](O)[C@@]1(C)C(=O)[C@H](O)C3=C(C)[C@@H](OC(=O)[C@H](O)[C@@H](NC(=O)OC(C)(C)C)c4ccccc4)C[C@@](O)([C@@H](OC(=O)c4ccccc4)[C@H]21)C3(C)C [Docetaxel]
Description: as §1

Brivanib = compound: Cc1cc2c(F)c(Oc3ncnn4cc(OC[C@@H](C)O)c(C)c34)ccc2[nH]1 [Brivanib]
Description: as §1

MI-219 = compound: CC(C)(C)C[C@H]1N[C@@H](C(=O)NCC[C@H](O)CO)[C@H](c2cccc(Cl)c2)[C@@]12C(=O)Nc1cc(Cl)c(F)cc12 [MI-219]
Description: as §1

Dasatinib = compound: Cc1nc(Nc2ncc(C(=O)Nc3c(C)cccc3Cl)s2)cc(N2CCN(CCO)CC2)n1 [Dasatinib]
Description: as §1

Sirolimus = compound: CO[C@H]1C[C@@H]2CC[C@@H](C)[C@@](O)(O2)C(=O)C(=O)N2CCCC[C@H]2C(=O)O[C@H]([C@H](C)C[C@@H]2CC[C@@H](O)[C@H](OC)C2)CC(=O)[C@H](C)/C=C(\C)[C@@H](O)[C@@H](OC)C(=O)[C@H](C)C[C@H](C)/C=C/C=C/C=C/1C [Sirolimus]
Description: (§2)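 Same SRB 96 h IC50 screen on breast cancer cell lines (RPMI 1640 + 10% FBS, collagen I-coated 96-well plates, triplicates, 12 dilutions), for drugs with a different dose range: Bortezomib up to 2e-5 M; Sirolimus and 17-AAG up to 2e-6 M. Sirolimus values at the 2e-6 M top dose are censored.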

17-AAG = compound: C=CCNC1=C2C[C@@H](C)C[C@H](OC)[C@H](O)[C@@H](C)/C=C(\C)[C@H](OC(N)=O)[C@@H](OC)/C=C\C=C(/C)C(=O)NC(=CC1=O)C2=O [17-AAG]
Description: as §2

Bortezomib = compound: CC(C)C[C@H](NC(=O)[C@H](Cc1ccccc1)NC(=O)c1cnccn1)B(O)O [Bortezomib]
Description: as §2

Test System	IC50 (SRB growth assay) (Vorinostat)	IC50 (SRB growth assay) (Nutlin-3)	IC50 (SRB growth assay) (Panobinostat)	IC50 (SRB growth assay) (Azacitidine)	IC50 (SRB growth assay) (Tipifarnib)	IC50 (SRB growth assay) (Erlotinib)	IC50 (SRB growth assay) (Quisinostat)	IC50 (SRB growth assay) (Gefitinib)	IC50 (SRB growth assay) (Doxorubicin)	IC50 (SRB growth assay) (Paclitaxel)	IC50 (SRB growth assay) (Vandetanib)	IC50 (SRB growth assay) (Methotrexate)	IC50 (SRB growth assay) (Decitabine)	IC50 (SRB growth assay) (5-Fluorouracil)	IC50 (SRB growth assay) (Mitoxantrone)	IC50 (SRB growth assay) (Belinostat)	IC50 (SRB growth assay) (Cisplatin)	IC50 (SRB growth assay) (Sorafenib)	IC50 (SRB growth assay) (ARQ197)	IC50 (SRB growth assay) (Serdemetan)	IC50 (SRB growth assay) (Lapatinib)	IC50 (SRB growth assay) (Sunitinib)	IC50 (SRB growth assay) (Tamoxifen)	IC50 (SRB growth assay) (Docetaxel)	IC50 (SRB growth assay) (Brivanib)	IC50 (SRB growth assay) (MI-219)	IC50 (SRB growth assay) (Dasatinib)	IC50 (SRB growth assay) (Sirolimus)	IC50 (SRB growth assay) (17-AAG)	IC50 (SRB growth assay) (Bortezomib)
HCC 1500	987 nM	2670 nM	12.8 nM	2330 nM	1050 nM	617 nM	9.34 nM	679 nM	40.3 nM	3.44 nM	1280 nM	> 10000 nM	6210 nM	3930 nM	30.6 nM	367 nM	> 10000 nM	6090 nM	197 nM	1960 nM	529 nM	8230 nM	> 10000 nM	0.745 nM	> 10000 nM	1070 nM	959 nM	0.274 nM	905 nM	5.55 nM
HCC 1569	1070 nM	> 10000 nM	14.4 nM	2620 nM	938 nM	3240 nM	7.46 nM	7430 nM	42.1 nM	66.2 nM	2070 nM	> 10000 nM	> 10000 nM	8210 nM	31.4 nM	521 nM	> 10000 nM	4350 nM	619 nM	1800 nM	857 nM	6490 nM	5680 nM	7.63 nM	> 10000 nM	> 10000 nM	381 nM	0.355 nM	90 nM	5.08 nM
HCC 1806	632 nM	> 10000 nM	15.8 nM	> 10000 nM	263 nM	327 nM	8.95 nM	513 nM	20.8 nM	1.97 nM	580 nM	2.99 nM	1190 nM	5080 nM	20.1 nM	216 nM	> 10000 nM	5250 nM	501 nM	826 nM	589 nM	4990 nM	5990 nM	0.597 nM	> 10000 nM	> 10000 nM	178 nM	> 2000 nM	53.6 nM	5.96 nM
HCC 1954	452 nM	> 10000 nM	9.53 nM	807 nM	449 nM	361 nM	7.36 nM	435 nM	11.1 nM	1.37 nM	894 nM	10.2 nM	1650 nM	2490 nM	8.2 nM	142 nM	> 10000 nM	5510 nM	205 nM	1280 nM	182 nM	5340 nM	5420 nM	0.37 nM	5340 nM	> 10000 nM	2290 nM	0.0308 nM	26.4 nM	5.29 nM
Hs 578T	999 nM	> 10000 nM	18.5 nM	5800 nM	3930 nM	> 10000 nM	12.7 nM	> 10000 nM	57.7 nM	1.88 nM	5710 nM	26 nM	> 10000 nM	> 10000 nM	16.8 nM	543 nM	> 10000 nM	6640 nM	696 nM	2550 nM	> 10000 nM	7020 nM	> 10000 nM	0.796 nM	> 10000 nM	> 10000 nM	1360 nM	0.946 nM	49.4 nM	5.74 nM
MCF 7	783 nM	2010 nM	12 nM	3730 nM	28.6 nM	> 10000 nM	5.75 nM	> 10000 nM	8.94 nM	1.79 nM	> 10000 nM	13.9 nM	472 nM	2210 nM	14.8 nM	419 nM	> 10000 nM	5100 nM	260 nM	1690 nM	4000 nM	4470 nM	5690 nM	1.12 nM	> 10000 nM	815 nM	> 10000 nM	58.2 nM	93.4 nM	8.35 nM
MDA-MB 361	723 nM	> 10000 nM	8.08 nM	> 10000 nM	2210 nM	3870 nM	3.95 nM	4600 nM	67 nM	4.81 nM	4370 nM	729 nM	> 10000 nM	> 10000 nM	25.9 nM	469 nM	> 10000 nM	5770 nM	417 nM	3950 nM	499 nM	> 10000 nM	8840 nM	1.41 nM	> 10000 nM	> 10000 nM	6020 nM	0.259 nM	41.4 nM	6.68 nM
